Patent publication US20230265151A1, “GIP/GLP1 CO-AGONIST COMPOUNDS” (priority 2020, published 2023)
Where two headings read alike, the source gives them in different places.

Legend:
Type in all cases: cell-based
hGIPR = biological target: T1, hGIPR (Homo sapiens, UniProt P48546); experiment: Functional cAMP formation (HTRF) in HEK-293 clonal cells expressing hGIPR, 0.1% bovine casein, without or with 1.0% human serum albumin; conditions: for EC50: geometric mean
T1 construct: expressed in transfected cells
T1 sequence (P48546 22-466): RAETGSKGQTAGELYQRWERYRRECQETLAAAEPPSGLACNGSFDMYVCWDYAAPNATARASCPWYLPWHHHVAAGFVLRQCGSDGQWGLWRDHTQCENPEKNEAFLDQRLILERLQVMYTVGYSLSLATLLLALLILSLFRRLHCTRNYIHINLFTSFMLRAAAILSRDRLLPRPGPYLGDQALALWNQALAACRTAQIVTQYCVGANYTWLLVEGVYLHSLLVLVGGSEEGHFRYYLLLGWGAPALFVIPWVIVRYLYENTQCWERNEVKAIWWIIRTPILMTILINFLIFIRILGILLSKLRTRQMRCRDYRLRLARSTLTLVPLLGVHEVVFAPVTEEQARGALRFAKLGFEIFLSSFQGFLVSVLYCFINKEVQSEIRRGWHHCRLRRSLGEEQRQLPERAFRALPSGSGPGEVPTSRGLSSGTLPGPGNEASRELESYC
In short: (§1)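 Readings of the HTRF 665/620 nm ratio, which falls as cAMP rises, were converted to nM cAMP using a standard curve after 30 min peptide exposure at 37° C.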

hGLP-1R = hGLP-1R (Homo sapiens, UniProt P43220); experiment: Functional cAMP formation (HTRF) in HEK-293 clonal cells expressing hGLP-1R, 0.1% bovine casein, without or with 1.0% human serum albumin; parameters: expressed in transfected cells; conditions: for EC50: geometric mean; for Emax: read-out: hGLP-1R Emax, % ± SEM
Sequence of hGLP-1R (P43220 24-463): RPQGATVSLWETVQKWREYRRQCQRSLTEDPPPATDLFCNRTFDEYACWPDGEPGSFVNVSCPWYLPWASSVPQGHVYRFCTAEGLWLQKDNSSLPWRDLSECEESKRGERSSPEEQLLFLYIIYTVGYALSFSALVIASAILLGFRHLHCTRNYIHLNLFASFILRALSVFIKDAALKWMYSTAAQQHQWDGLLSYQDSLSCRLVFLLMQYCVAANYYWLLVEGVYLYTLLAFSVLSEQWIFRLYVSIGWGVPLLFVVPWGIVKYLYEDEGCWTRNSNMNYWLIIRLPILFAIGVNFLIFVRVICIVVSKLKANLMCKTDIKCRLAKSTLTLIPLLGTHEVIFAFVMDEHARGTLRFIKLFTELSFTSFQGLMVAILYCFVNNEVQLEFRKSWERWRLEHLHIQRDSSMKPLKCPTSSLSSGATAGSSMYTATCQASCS
In short: as §1

hGCGR = biological target: T2, hGCGR (Homo sapiens, UniProt P47871); experiment: Functional cAMP formation (HTRF) in HEK-293 clonal cells expressing hGCGR, 0.1% bovine casein, without or with 1.0% human serum albumin; conditions: geometric mean
T2 construct: expressed in transfected cells
T2 sequence (P47871 26-477): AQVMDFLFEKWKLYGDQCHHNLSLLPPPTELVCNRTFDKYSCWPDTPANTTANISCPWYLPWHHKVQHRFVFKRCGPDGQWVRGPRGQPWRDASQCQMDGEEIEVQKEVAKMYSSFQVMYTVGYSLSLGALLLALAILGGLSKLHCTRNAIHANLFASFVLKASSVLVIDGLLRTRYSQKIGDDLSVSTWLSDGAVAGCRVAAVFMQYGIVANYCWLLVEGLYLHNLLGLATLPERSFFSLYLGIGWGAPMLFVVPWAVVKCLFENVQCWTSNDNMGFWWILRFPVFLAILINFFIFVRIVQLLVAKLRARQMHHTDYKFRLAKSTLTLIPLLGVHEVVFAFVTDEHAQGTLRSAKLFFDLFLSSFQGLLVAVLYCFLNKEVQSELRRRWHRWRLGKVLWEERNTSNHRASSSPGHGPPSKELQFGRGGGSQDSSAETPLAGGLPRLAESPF
In short: as §1

[1] = HEK293, read-out: hGIPR Emax, % ± SEM, percent of maximal response to GIP(1-42)NH2, 37° C., 0.1% bovine casein, arithmetic mean
[2] = hGIPR EC50, nM (SEM, n), cAMP, incubated at 37° C., 0.1% bovine casein (no human serum albumin)
[3] = hGCGR EC50, nM (SEM, n), cAMP, incubated at 37° C., 0.1% bovine casein (no human serum albumin)
[4] = cAMP, incubated at 37° C., 0.1% bovine casein (no human serum albumin), read-out: hGCGR EC50, nM (SEM, n)

## CC[C@H](C)[C@H](NC(=O)[C@H](CC(C)C)NC(=O)[C@](C)(Cc1ccc(O)cc1)NC(=O)[C@@H](CCC(=O)O)NC(=O)[C@@H](NC(=O)[C@H](Cc1ccccc1)NC(=O)[C@H](CCC(=O)O)NC(=O)C(C)(C)NC(=O)[C@H](CCC(N)=O)NC(=O)[C@H](C)NC(=O)[C@H](CCCCNC(=O)COCCOCCNC(=O)COCCOCCNC(=O)CCCCCCCCCOc1ccc(C(=O)O)cc1)NC(=O)[C@H](CCCN)NC(=O)[C@H](CC(=O)O)NC(=O)[C@H](CC(C)C)NC(=O)[C@](C)(CC(C)C)NC(=O)[C@@H](NC(=O)[C@H](CO)NC(=O)[C@H](Cc1ccncc1)NC(=O)[C@H](CC(=O)O)NC(=O)[C@H](CO)NC(=O)[C@@H](NC(=O)[C@](C)(Cc1ccccc1F)NC(=O)[C@@H](NC(=O)CNC(=O)[C@H](CCC(=O)O)NC(=O)C(C)(C)NC(=O)[C@@H](N)Cc1ccc(O)cc1)[C@@H](C)O)[C@@H](C)O)[C@@H](C)CC)[C@@H](C)CC)C(=O)N[C@@H](CCC(=O)O)C(=O)NCC(=O)NCC(=O)N[C@@H](CCCCNC(=O)COCCOCCNC(=O)COCCOCCNC(=O)CCCCCCCCCOc1ccc(C(=O)O)cc1)C(=O)N[C@@H](CO)C(=O)N[C@@H](CO)C(=O)NCC(=O)N[C@@H](C)C(=O)N1CCC[C@H]1C(=O)N1CCC[C@H]1C(=O)N1CCC[C@H]1C(=O)N[C@@H](CO)C(N)=O [Example 10]
hGIPR; HEK293, read-out: hGIPR Emax, % ± SEM, 0.1% bovine casein and 1.0% human serum albumin, 37° C., percent of maximal response to GIP(1-42)NH2
  Emax: 84.9 ± 1.84%
hGIPR; [1]
  Emax: 97.9 ± 1.99%
hGIPR; hGIPR EC50, nM (SEM, n), 0.1% bovine casein and 1.0% human serum albumin, 37° C.
  EC50: 0.121 nM
hGIPR; [2]
  EC50: 0.0106 nM
hGLP-1R; hGLP-1R EC50, nM (SEM, n), 0.1% bovine casein and 1.0% human serum albumin, 37° C.
  EC50: 4.38 nM
hGCGR; hGCGR EC50, nM (SEM, n), 0.1% bovine casein and 1.0% human serum albumin, 37° C.
  EC50: > 9950 nM
hGCGR; [3]
  EC50: > 9950 nM

## CC[C@H](C)[C@H](NC(=O)[C@H](CC(C)C)NC(=O)[C@](C)(Cc1ccc(O)cc1)NC(=O)[C@@H](CCC(=O)O)NC(=O)[C@@H](NC(=O)[C@H](Cc1ccccc1)NC(=O)[C@H](CCC(=O)O)NC(=O)C(C)(C)NC(=O)[C@H](CCC(N)=O)NC(=O)[C@H](C)NC(=O)[C@H](CCCCNC(=O)[C@@H](N)CCCCNC(=O)CC[C@H](NC(=O)CCCCCCCCCCCCC(=O)O)C(=O)O)NC(=O)[C@H](CCCN)NC(=O)[C@H](CC(=O)O)NC(=O)[C@H](CC(C)C)NC(=O)[C@](C)(CC(C)C)NC(=O)[C@@H](NC(=O)[C@H](CO)NC(=O)[C@H](Cc1ccncc1)NC(=O)[C@H](CC(=O)O)NC(=O)[C@H](CO)NC(=O)[C@@H](NC(=O)[C@](C)(Cc1ccccc1F)NC(=O)[C@@H](NC(=O)CNC(=O)[C@H](CCC(=O)O)NC(=O)C(C)(C)NC(=O)[C@@H](N)Cc1ccc(O)cc1)[C@@H](C)O)[C@@H](C)O)[C@@H](C)CC)[C@@H](C)CC)C(=O)N[C@@H](CCC(=O)O)C(=O)NCC(=O)NCC(=O)N[C@@H](CCCCNC(=O)[C@@H](N)CCCCNC(=O)CC[C@H](NC(=O)CCCCCCCCCCCCC(=O)O)C(=O)O)C(=O)N[C@@H](CO)C(=O)N[C@@H](CO)C(=O)NCC(=O)N[C@@H](C)C(=O)N1CCC[C@H]1C(=O)N1CCC[C@H]1C(=O)N1CCC[C@H]1C(=O)N[C@@H](CO)C(N)=O [Example 38]
hGIPR; 0.1% bovine casein and 1.0% human serum albumin, 37° C., read-out: hGIPR EC50, nM (SEM, n)
  EC50: 0.539 nM
hGIPR; HEK293, 0.1% bovine casein and 1.0% human serum albumin, 37° C., percent of maximal response to GIP(1-42)NH2, read-out: hGIPR Emax, % ± SEM
  Emax: 88.8 ± 0.59%
hGIPR; cAMP, incubated at 37° C., 0.1% bovine casein (no human serum albumin), read-out: hGIPR EC50, nM (SEM, n)
  EC50: 0.0155 nM
hGLP-1R; 0.1% bovine casein and 1.0% human serum albumin, 37° C., read-out: hGLP-1R EC50, nM (SEM, n)
  EC50: 12.5 nM
hGLP-1R; HEK293, 0.1% bovine casein and 1.0% human serum albumin, 37° C., percent of maximal response to GLP-1(7-36)NH2
  Emax: 115 ± 2.53%
hGLP-1R; cAMP, incubated at 37° C., 0.1% bovine casein (no human serum albumin), read-out: hGLP-1R EC50, nM (SEM, n)
  EC50: 0.225 nM
hGCGR; 0.1% bovine casein and 1.0% human serum albumin, 37° C., read-out: hGCGR EC50, nM (SEM, n)
  EC50: > 9950 nM
hGCGR; [4]
  EC50: > 9950 nM

## CCCCCCCCCCCC(=O)N[C@@H](CCC(=O)NCCOCCOCC(=O)NCCOCCOCC(=O)NCCCC[C@H](NC(=O)CNC(=O)CNC(=O)[C@H](CCC(=O)O)NC(=O)[C@@H](NC(=O)[C@H](CC(C)C)NC(=O)[C@](C)(Cc1ccccc1)NC(=O)[C@@H](CCC(=O)O)NC(=O)[C@@H](NC(=O)[C@](C)(Cc1ccccc1)NC(=O)[C@H](CCC(=O)O)NC(=O)C(C)(C)NC(=O)[C@H](CCC(N)=O)NC(=O)[C@H](C)NC(=O)[C@H](CCCCNC(=O)COCCOCCNC(=O)COCCOCCNC(=O)CC[C@H](NC(=O)CCCCCCCCCCC)C(=O)O)NC(=O)[C@H](CCCN)NC(=O)[C@H](CC(=O)O)NC(=O)[C@H](CC(C)C)NC(=O)[C@](C)(CC(C)C)NC(=O)[C@@H](NC(=O)[C@H](CO)NC(=O)[C@H](Cc1ccncc1)NC(=O)[C@H](CC(=O)O)NC(=O)[C@H](CO)NC(=O)[C@@H](NC(=O)[C@](C)(Cc1ccccc1)NC(=O)[C@@H](NC(=O)CNC(=O)[C@H](CCC(=O)O)NC(=O)C(C)(C)NC(=O)[C@@H](N)Cc1ccc(O)cc1)[C@@H](C)O)[C@@H](C)O)[C@@H](C)CC)[C@@H](C)CC)[C@@H](C)CC)C(=O)N[C@@H](CO)C(=O)N[C@@H](CO)C(=O)NCC(=O)N[C@@H](C)C(=O)N1CCC[C@H]1C(=O)N1CCC[C@H]1C(=O)N1CCC[C@H]1C(=O)N[C@@H](CO)C(N)=O)C(=O)O [Example 174]
hGIPR; HEK293, percent of maximal response to GIP(1-42)NH2, 37° C., 0.1% bovine casein, arithmetic mean, read-out: hGIPR Emax, % ± SEM
  Emax: 92.2%
hGLP-1R; HEK293, percent of maximal response to GLP-1(7-36)NH2, 37° C., 0.1% bovine casein, arithmetic mean
  Emax: 98.2%
hGCGR; [4]
  EC50: > 9950 nM

## CC[C@H](C)[C@H](NC(=O)[C@H](CC(C)C)NC(=O)[C@](C)(Cc1ccc(O)cc1)NC(=O)[C@H](CCCCNC(=O)COCCOCCNC(=O)COCCOCCNC(=O)CC[C@H](NC(=O)CCCCCCCCCCCCC(=O)O)C(=O)O)NC(=O)[C@@H](NC(=O)[C@H](Cc1ccccc1)NC(=O)[C@H](CCC(=O)O)NC(=O)C(C)(C)NC(=O)[C@H](CCC(N)=O)NC(=O)[C@H](C)NC(=O)[C@H](CCCCNC(=O)COCCOCCNC(=O)COCCOCCNC(=O)CC[C@H](NC(=O)CCCCCCCCCCCCC(=O)O)C(=O)O)NC(=O)[C@H](CCCN)NC(=O)[C@H](CC(=O)O)NC(=O)[C@H](CC(C)C)NC(=O)[C@](C)(CC(C)C)NC(=O)[C@@H](NC(=O)[C@H](CO)NC(=O)[C@@H](NC(=O)[C@H](CC(=O)O)NC(=O)[C@H](CO)NC(=O)[C@@H](NC(=O)[C@](C)(Cc1ccccc1)NC(=O)[C@@H](NC(=O)CNC(=O)[C@H](CCC(=O)O)NC(=O)C(C)(C)NC(=O)[C@@H](N)Cc1ccc(O)cc1)[C@@H](C)O)[C@@H](C)O)C(C)C)[C@@H](C)CC)[C@@H](C)CC)C(=O)N[C@@H](CCC(=O)O)C(=O)NCC(=O)NCC(=O)N1CCC[C@H]1C(=O)N[C@@H](CO)C(=O)N[C@@H](CO)C(=O)NCC(=O)N[C@@H](C)C(=O)N1CCC[C@H]1C(=O)N1CCC[C@H]1C(=O)N1CCC[C@H]1C(=O)N[C@@H](CO)C(N)=O [Example 181]
hGIPR; [1]
  Emax: 94.6%
hGIPR; [2]
  EC50: 0.154 nM
hGLP-1R; hGLP-1R EC50, nM (SEM, n), cAMP, incubated at 37° C., 0.1% bovine casein (no human serum albumin)
  EC50: 0.182 nM
hGCGR; [3]
  EC50: > 9950 nM
